Measured values from patent publication US12369578B2, “Use of a nematicide composition” (DESARROLLO AGRICOLA Y MINERO, S.A., priority 2019, dated 2025).

Legend:
M. incognita [1] = experiment: Egg hatching, laboratory test in sterile water; type: in vivo; conditions: M. incognita eggs; 0.025%, 0.05%, 0.1%; counts about every 72 h for 3-4 weeks
Excerpt: (§1) The aim of the protocol was to evaluate the nematicidal efficacy of the formulation and of the active ingredients, cinnamic aldehyde and terpene alcohol, separately. For this trial M. incognita and M. javanica nematodes were used.
(§2) • 1. Untreated control specimen: Eggs or juvenile nematodes in sterile water. • 2. Eggs or juveniles with 0.025% of the formulation in sterile water. • 3. Eggs or juveniles with 0.05% of the formulation in sterile water. • 4. Eggs or juveniles with 0.1% of the formulation in sterile water. • 5. Eggs or juveniles with 0.025% of terpene alcohol in sterile water plus innocuous solvent. • 6. Eggs or juveniles with 0.05% of terpene alcohol in sterile water plus innocuous solvent. • 7. Eggs or juveniles with 0.1% of terpene alcohol in sterile water plus innocuous solvent. • 8. Eggs or juveniles with 0.025% of cinnamic aldehyde in sterile water plus innocuous solvent. • 9. Eggs or juveniles with 0.05% of cinnamic aldehyde in sterile water plus innocuous solvent. • 10. Eggs or juveniles with 0.1% of cinnamic aldehyde in sterile water plus innocuous solvent. Results:
(§3) The treatments with juveniles hatched at 0 h, 24 h, 48 h and 72 h. The number of hatched eggs was determined approximately every 72 h for 3-4 weeks. […]

M. incognita [2] = experiment: Juvenile (J2) mortality, laboratory test in sterile water; type: in vivo; conditions: all concentrations (0.025%, 0.05%, 0.1%), in less than 24 h
Excerpt: as §1, §2, §3

## O=C/C=C/c1ccccc1 [cinnamic aldehyde, (2E)-3-phenylprop-2-enal]
M. incognita [1]
  egg hatching: inhibited the hatching of juveniles
M. incognita [2]
  mortality of J2: 100%
